In patent US20170042880A1, “Method of Treating Lung Adenocarcinoma” (Exelixis, Inc., priority 2014, published 2017):
pIC50: −log10 of the molar value. Where two headings read alike, the source gives them in different places.

What was measured:
[1] = system: HCC-78 NSCLC cells (SLC34A2-ROS1 fusion); experiment: ROS1-dependent proliferation of HCC-78 NSCLC cells (BrdU ELISA); type: cell-based; conditions: Homo sapiens; for pIC50: HCC78, BrdU incorporation
Procedure: (§1) Both HCC-78 and NCI-H2228 cells were received from DSMZ and ATCC respectively as a frozen biological sample thawed into a T-75 flask (Nunc) and grown until 80 to 90% confluent for adherent cells or until cells were at a density of 1-2×10^6 cells/mL for suspension cells.
(§2) Cells were grown at 37° C. in a humidified, 5% CO2 atmosphere for 16 hours. […] Cells were assayed for proliferation by monitoring BrdU incorporation. […] After BrdU labelling, cells were fixed with FixDenat solution. anti-BrdU peroxidase (POD) conjugate was added and plates were washed with 1×PBS. Substrate solution was added, and luminescence measurements were taken on a Victor Wallac V plate reader (Perkin Elmer).

[2] = system: NCI-H2228 cells (EML4-ALK fusion); experiment: BrdU ELISA proliferation of NCI-H2228 cells; type: cell-based; conditions: Homo sapiens, BrdU incorporation
Procedure: as §1, §2

RET = RET (Homo sapiens, UniProt P07949); conditions: cited from earlier work
SLC34A2-ROS1 fusion = target: T1, SLC34A2-ROS1 fusion (Homo sapiens, UniProt P08922); experiment: Inhibition of ROS1 phosphorylation in HCC-78 cells (western blot); type: cell-based; conditions: single escalating doses, 3 hour incubation, versus Crizotinib
T1 construct: a portion of the ROS1 polypeptide comprising the kinase domain of the ROS1 protein; N-terminal portion of SLC34A2 (natural fusion partner, O95436); host or cells: HCC-78 (human NSCLC adenocarcinoma); the other entry of the earlier key: SLC34A2 (O95436, Sodium-dependent phosphate transport protein 2B)
Procedure: HCC-78 cells, a human lung NSCLC adenocarcinoma cell line (DSMZ, ACC 563) harboring the activating SLC34A2-ROS1 fusion and phosphor-Met, were seeded at 3×10^5 cells/well onto 6-well plates (Nunclon, 152795), RPMI 1640 (ATCC, 30-2001) containing 10% FBS (heat-inactivated, Cellgro) and 1% penicillin-streptomycin (Cellgro). DMSO or serial dilutions of compound 1 in fresh medium with 10% FBS in a final concentration of 0.3% DMSO (vehicle) were added to the cells and incubated for 3 hour. After treatment, cells were collected and washed with cold PBS and immediately lysed with 0.15 mL of cold lysis buffer (50 mM Tris HCl, pH 8.0, 150 mM NaCl, 1% NP 40, 0.1% SDS, 0.5% sodium deoxycholate, 1 mM EDTA, 50 mM NaF, 1 mM sodium pyrophosphate, 1 mM Na3VO4, 2 mM PMSF, 10 μg/mL aprotinin, 5 μg/mL leupeptin and 5 pμg/mL pepstatin A). Lysates were collected, and protein concentrations were measured by the BCA method (Pierce). […] The membranes were scanned using the Odyssey Scanner (Li-Cor) and the signal intensity of each band was quantified using ImageQuant (Molecular Devices). IC50 values were calculated based on the signal with compound treatment compared to the vehicle (DMSO) control.

T1 sequence (P08922 1945-2222 limits assumed): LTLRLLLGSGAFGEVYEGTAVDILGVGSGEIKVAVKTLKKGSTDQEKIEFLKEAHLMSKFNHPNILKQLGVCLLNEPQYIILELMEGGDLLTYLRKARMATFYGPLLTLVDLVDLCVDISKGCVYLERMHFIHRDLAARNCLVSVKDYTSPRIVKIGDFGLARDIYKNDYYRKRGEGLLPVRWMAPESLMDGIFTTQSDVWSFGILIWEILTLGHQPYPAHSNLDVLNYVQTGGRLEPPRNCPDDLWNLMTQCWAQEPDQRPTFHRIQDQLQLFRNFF
Sequence of RET (P07949 29-1114, species assumed): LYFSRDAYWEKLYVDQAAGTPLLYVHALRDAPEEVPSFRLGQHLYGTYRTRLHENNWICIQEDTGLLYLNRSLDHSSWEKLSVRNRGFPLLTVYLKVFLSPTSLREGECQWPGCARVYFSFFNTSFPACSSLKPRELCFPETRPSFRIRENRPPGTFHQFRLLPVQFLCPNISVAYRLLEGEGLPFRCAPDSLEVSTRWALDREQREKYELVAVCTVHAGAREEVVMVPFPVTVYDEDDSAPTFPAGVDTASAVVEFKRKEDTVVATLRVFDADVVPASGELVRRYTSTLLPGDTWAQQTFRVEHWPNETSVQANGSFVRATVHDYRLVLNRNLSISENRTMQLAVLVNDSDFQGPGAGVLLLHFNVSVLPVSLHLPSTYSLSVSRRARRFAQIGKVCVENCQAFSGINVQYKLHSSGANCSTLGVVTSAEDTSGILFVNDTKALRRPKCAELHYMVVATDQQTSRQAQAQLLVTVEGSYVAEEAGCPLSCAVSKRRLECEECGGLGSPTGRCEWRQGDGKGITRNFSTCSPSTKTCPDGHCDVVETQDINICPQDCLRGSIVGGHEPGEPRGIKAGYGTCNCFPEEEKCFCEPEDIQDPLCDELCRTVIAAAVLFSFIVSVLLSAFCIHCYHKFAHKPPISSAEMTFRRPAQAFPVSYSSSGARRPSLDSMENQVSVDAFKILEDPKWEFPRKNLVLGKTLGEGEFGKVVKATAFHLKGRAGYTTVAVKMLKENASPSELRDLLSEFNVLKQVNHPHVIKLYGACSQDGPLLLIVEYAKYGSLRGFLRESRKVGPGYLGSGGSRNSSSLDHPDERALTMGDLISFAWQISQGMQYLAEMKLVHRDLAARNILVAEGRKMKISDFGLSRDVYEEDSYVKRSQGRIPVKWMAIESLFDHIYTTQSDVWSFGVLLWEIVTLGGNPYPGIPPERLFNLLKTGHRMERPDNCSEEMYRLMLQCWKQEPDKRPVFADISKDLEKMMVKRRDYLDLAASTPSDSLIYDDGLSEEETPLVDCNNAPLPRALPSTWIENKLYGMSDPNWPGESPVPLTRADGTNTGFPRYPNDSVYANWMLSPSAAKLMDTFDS

SMILES: COc1cc2nccc(Oc3ccc(NC(=O)C4(C(=O)Nc5ccc(F)cc5)CC4)cc3)c2cc1OC [Compound 1, N-(4-{[6,7-bis(methyloxy)quinolin-4-yl]oxy}phenyl)-N′-(4-fluorophenyl)cyclopropane-1,1-dicarboxamide]
- pIC50 ([1]; HCC-78, 48 hr incubation, read-out: 48 hr Prolif. IC50): 7.00 to 8.00
- pIC50 ([1]; HCC-78, 72 hr incubation, read-out: 72 hr Prolif. IC50): 7.00 to 8.00
- pIC50 ([2]; NCI-H2228, 48 hr incubation, read-out: 48 hr Prolif. IC50): 5.30 to 6.00
- pIC50 ([2]; NCI-H2228, 72 hr incubation, read-out: 72 hr Prolif. IC50): 5.00 to 5.30
- inhibitor of RET (RET): potent inhibitor
- Inhibition of SLC34A2-ROS1 mediated kinase activity (ROS1 phosphorylation) (SLC34A2-ROS1 fusion): more potent than the comparator control

SMILES: C[C@@H](Oc1cc(-c2cnn(C3CCNCC3)c2)cnc1N)c1c(Cl)ccc(F)c1Cl [Crizotinib, 3-[(1R)-1-(2,6-dichloro-3-fluorophenyl)ethoxy]-5-(1-piperidin-4-ylpyrazol-4-yl)pyridin-2-amine, reference compound]
- IC50 ([1]; HCC78, 48 h, read-out: 48 hr Prolif. IC50 (nM)): 100 to 500 nM
- IC50 ([1]; HCC78, 72 h, read-out: 72 hr Prolif. IC50 (nM)): 10 to 100 nM
